Experimental data published in the NIST ThermoML archive (doi:10.1016/j.jct.2018.08.007).
Where “and” joins values, the source holds several entries; their conditions need not be identical. Equal values may be shown once.

Test: mn = molality of the nth substance listed, in mol/kg
Details: 100 kPa, Liquid; for viscosity: Capillary tube (Ostwald / Ubbelohde) method; for mass density: Vibrating tube method

CN(CC(=O)O)C(=N)N [N-amidinosarcasine] + O
Details | mass density, 293.15 K [kg/m3] | mass density, 298.15 K [kg/m3] | mass density, 303.15 K [kg/m3] | mass density, 308.15 K [kg/m3] | mass density, 313.15 K | viscosity, 293.15 K [mPa·s] | viscosity, 298.15 K [mPa·s] | viscosity, 303.15 K [mPa·s] | viscosity, 308.15 K [mPa·s] | viscosity, 313.15 K [mPa·s]
m1 = 0.02 | – | – | – | – | – | 1.008 | 0.895 | 0.804 | 0.723 | 0.658
m1 = 0.03 | – | – | – | – | – | 1.011 | 0.898 | 0.806 | 0.727 | 0.659
m1 = 0.0306 | 999.51 | 998.33 | 996.9 | 995.23 | 993.35 kg/m3 | – | – | – | – | –
m1 = 0.04 | 999.9 | 998.72 | 997.28 | 995.6 | 993.7 kg/m3 | 1.014 | 0.901 | 0.808 | 0.729 | 0.662
m1 = 0.0406 | 999.93 | 998.74 | 997.31 | 995.63 | 993.73 kg/m3 | – | – | – | – | –
m1 = 0.0477 | 1000.23 | 999.04 | 997.6 | 995.91 | 994 kg/m3 | – | – | – | – | –
m1 = 0.05 | 1000.33 | 999.13 | 997.69 | 996 | 994.09 kg/m3 | 1.017 | 0.904 | 0.81 | 0.731 | 0.664
m1 = 0.0548 | 1000.53 | 999.33 | 997.89 | 996.2 | 994.28 kg/m3 | – | – | – | – | –
m1 = 0.0564 | 1000.59 | 999.4 | 997.96 | 996.26 | 994.35 kg/m3 | – | – | – | – | –
m1 = 0.0597 | 1000.73 | 999.53 | 998.09 | 996.39 | 994.47 kg/m3 and 994.48 kg/m3 | 1.019 | 0.907 | 0.811 | 0.733 | 0.665
m1 = 0.0675 | 1001.06 | 999.86 | 998.41 | 996.71 | 994.79 kg/m3 | – | – | – | – | –
m1 = 0.0701 | 1001.17 | 999.96 | 998.52 | 996.82 | 994.89 kg/m3 | 1.024 | 0.91 | 0.817 | 0.737 | 0.669
m1 = 0.0727 | 1001.27 | 1000.07 | 998.63 | 996.92 | 995 kg/m3 | – | – | – | – | –
m1 = 0.0782 | 1001.5 | 1000.29 | 998.85 | 997.15 | 995.22 kg/m3 | – | – | – | – | –
m1 = 0.08 | 1001.58 | 1000.37 | 998.93 | 997.22 | 995.3 kg/m3 | 1.028 | 0.913 | 0.818 | 0.738 | 0.67
m1 = 0.0898 | 1001.98 | 1000.77 | 999.34 | 997.63 | 995.71 kg/m3 | – | – | – | – | –
m1 = 0.09 | 1001.99 | 1000.78 | 999.34 | 997.64 | 995.71 kg/m3 | 1.033 | 0.917 | 0.823 | 0.74 | 0.672
m1 = 0.0926 | 1002.1 | 1000.89 | 999.45 | 997.74 | 995.82 kg/m3 | – | – | – | – | –
m1 = 0.1038 | 1002.56 | 1001.35 | 999.92 | 998.21 | 996.3 kg/m3 | – | – | – | – | –
m1 = 0.1113 | 1002.87 | 1001.65 | 1000.23 | 998.53 | 996.62 kg/m3 | – | – | – | – | –
m1 = 0.1207 | 1003.25 | 1002.04 | 1000.62 | 998.93 | 997.03 kg/m3 | – | – | – | – | –
m1 = 0.1287 | 1003.58 | 1002.36 | 1000.96 | 999.26 | 997.39 kg/m3 | – | – | – | – | –
m1 = 0.1326 | 1003.74 | 1002.52 | 1001.12 | 999.43 | 997.56 kg/m3 | – | – | – | – | –

CN1CC(=O)NC1=N [creatinine] + O
Details | mass density, 293.15 K [kg/m3] | mass density, 298.15 K [kg/m3] | mass density, 303.15 K [kg/m3] | mass density, 308.15 K [kg/m3] | mass density, 313.15 K [kg/m3] | viscosity, 293.15 K [mPa·s] | viscosity, 298.15 K [mPa·s] | viscosity, 303.15 K [mPa·s] | viscosity, 308.15 K [mPa·s] | viscosity, 313.15 K [mPa·s]
m1 = 0.1001 | 1001.16 | 999.95 | 998.49 | 996.82 | 994.94 | – | – | – | – | –
m1 = 0.147 | 1002.53 | 1001.29 | 999.82 | 998.13 | 996.21 | – | – | – | – | –
m1 = 0.2001 | – | – | – | – | – | 1.053 | 0.935 | 0.837 | 0.755 | 0.685
m1 = 0.202 | 1004.12 | 1002.86 | 1001.37 | 999.64 | 997.69 | – | – | – | – | –
m1 = 0.25 | 1005.5 | 1004.22 | 1002.71 | 1000.97 | 999 | – | – | – | – | –
m1 = 0.2999 | – | – | – | – | – | 1.077 | 0.956 | 0.856 | 0.772 | 0.7
m1 = 0.3023 | 1006.99 | 1005.69 | 1004.16 | 1002.4 | 1000.43 | – | – | – | – | –
m1 = 0.3496 | 1008.33 | 1007.01 | 1005.48 | 1003.7 | 1001.71 | – | – | – | – | –
m1 = 0.3996 | – | – | – | – | – | 1.102 | 0.978 | 0.875 | 0.789 | 0.715
m1 = 0.4028 | 1009.83 | 1008.48 | 1006.94 | 1005.13 | 1003.12 | – | – | – | – | –
m1 = 0.5002 | – | – | – | – | – | 1.126 | 0.999 | 0.894 | 0.806 | 0.73
m1 = 0.5014 | 1012.57 | 1011.2 | 1009.63 | 1007.79 | 1005.76 | – | – | – | – | –
m1 = 0.5514 | 1013.95 | 1012.56 | 1010.97 | 1009.12 | 1007.08 | – | – | – | – | –
m1 = 0.6 | – | – | – | – | – | 1.15 | 1.02 | 0.912 | 0.822 | 0.745
m1 = 0.6018 | 1015.33 | 1013.93 | 1012.34 | 1010.48 | 1008.4 | – | – | – | – | –
m1 = 0.6087 | 1015.52 | 1014.11 | 1012.53 | 1010.65 | 1008.61 | – | – | – | – | –
m1 = 0.6491 | 1016.62 | 1015.21 | 1013.61 | 1011.72 | 1009.65 | – | – | – | – | –
m1 = 0.7 | – | – | – | – | – | 1.173 | 1.04 | 0.93 | 0.838 | 0.759
